Measurements as given in patent US10682323B2, “Therapeutic agent for glaucoma” (TOA EIYO LTD., priority 2016, dated 2020).

How the values were obtained:
[1] = tested on: Rabbits with normal intraocular pressure; assay: Influence on intraocular pressure in rabbits with normal intraocular pressure; type: in vivo; settings: rabbit, 50 μL of 0.1 w/v % solution instilled into one eye, three hours after administration, saline eye minus test eye, average of three
Description: Rabbits (strain: Std:NZW, sex: male) with normal intraocular pressure were acclimated to breeding environment for more than three weeks, and subjected to test (three rabbits per one group).
A test compound was weighed, and a required amount of a 10 mmol/L or 20 mmol/L tris hydrochloric acid buffer solution was added thereto with a micropipette and dissolved therein. If necessary, a 1 mol/L hydrochloric acid or a 1 mol/L sodium hydroxide solution was used to prepare a physiological pH, to obtain the test compound solution (0.1 w/v % solution).
50 μL of the test compound solution was instilled into one eye, and 50 μL of a saline solution was instilled into the other eye as a negative control. Three hours after administration, intraocular pressure was measured. In addition, the measurement of intraocular pressure was repeated in the manner of right eye→left eye→right eye→left eye→ . . . , and continued until the changes of three consecutive intraocular pressures of the right eye and the left eye were within 1 mmHg, respectively. The average of three intraocular pressures at that time was recorded as the intraocular pressure at that time. In addition, ΔIOP (mmHg) was calculated by subtracting the intraocular pressure of the eye for instillation of the test compound solution from the intraocular pressure of the eye for instillation of the saline solution.
In addition, the data represents an average of three tests per one group.

[2] = Determination of Log D value (flask shaking method); type: physicochemical; settings: pH 6.8; partition between n-octanol and second solution for the disintegration test (16th revised Japanese Pharmacopoeia), room temperature
Description: More specifically, the Log D is more preferably 1.6 or more and 2.3 or less, still more preferably 1.8 or more and 2.2 or less, and particularly preferably 1.8 or more and 2.1 or less. Here, the Log D value in the present invention is a compound partition coefficient between n-octanol and a second solution of a disintegration test of the 16th revised Japanese Pharmacopoeia.
The Log D value was determined using a flask shaking method, where a test compound partition coefficient between n-octanol and the second solution for the disintegration test defined in the 16th revised Japanese Pharmacopoeia was calculated. Specifically, in a microtube containing 2 mg of the test compound, n-octanol (0.25 mL) and the second solution for the disintegration test (0.25 mL) were mixed. The tube was shaken in a multi shaker at room temperature for 60 minutes, and allowed to stand until the two phases were completely separated. In the microtube, 10 μL of an n-octanol phase was diluted with 190 μL of 85% methanol and mixed, thereby obtaining an organic phase test solution. 100 μL of the second solution phase for the disintegration test was diluted with 100 μL of 50% methanol, and mixed, thereby obtaining an aqueous phase test solution. The organic phase test solution and the aqueous phase test solution were filtered, respectively, and the concentration of the test compound in these test solutions were measured, using high performance liquid chromatography. Then, from the measured concentration and dilution rate, the Log D was calculated.
That is, the Log D of the present specification is represented by the following equation: Log D=Log10([concentration of test compound in organic phase test solution]/[concentration of test compound in aqueous phase test solution])+1 [Equation 1]
The second solution for the disintegration test herein refers to, as defined in the 16th revised Japanese Pharmacopoeia, a liquid obtained by adding to 250 mL of a 0.2 mol/L potassium dihydrogenphosphate reagent, 118 mL of a 0.2 mol/L sodium hydroxide reagent, and water for adjusting to 1000 mL volume.

logD [2] | SMILES | ΔIOP [1] [mmHg]
1.5 | O=C(O)CCCCN(CCc1ccccc1OCc1ccc(CCc2ccccc2)cc1)Cc1ccc(C(=O)O)cc1 [Comparative Compound 1, reference compound] | 0.3
2.04 | O=C(O)CCCCN(Cc1ccc(C(=O)O)cc1)C[C@H](OCc1ccc(CCc2ccccc2)cc1)c1ccccc1 [Compound No. 14, (−)-4-([N-(4-carboxybutyl)-N-[(2R)-2-[4-(2-phenylethyl)benzyloxy]-2-phenylethyl]amino]methyl)benzoic acid] | 5.0
2.02 | O=C(O)CCCCN(Cc1ccc(C(=O)O)cc1)C[C@H](OCc1ccc(CCc2ccc(Cl)cc2)cc1)c1ccccc1 [Compound No. 6, (−)-4-([N-(4-carboxybutyl)-N-[(2R)-2-[4-[2-(4-chlorophenyl)ethyl]benzyloxy]-2-phenylethyl]amino]methyl)benzoic acid] | 3.4
2.59 | O=C(O)CCCCN(CCc1ccccc1OCc1ccc(CCc2ccccc2)cc1)C1COc2cc(C(=O)O)ccc21 (centres unmarked) [Comparative Compound 2, reference compound] | 1.5
2.78 | CC(C)(C)c1cc(CO[C@@H](CN(CCCCC(=O)O)Cc2ccc(C(=O)O)cc2)c2ccccc2)cc(C(C)(C)C)c1 [Comparative Compound 4, reference compound] | 0.2
1.32 | N#Cc1cccc([C@H](CN(CCCCC(=O)O)Cc2ccc(C(=O)O)cc2)OCc2ccc(Oc3ccccc3)cc2)c1 [Comparative Compound 3, reference compound] | 1.1
1.87 | O=C(O)CCCCN(CCc1ccccc1OCc1cccc2c1CCCC2)[C@H]1CCCc2cc(C(=O)O)ccc21 [Compound No. 8, (+)-(5S)-5-[N-(4-carboxybutyl)-N-[2-[2-(5,6,7,8-tetrahydronaphthalene-1-ylmethoxy)phenyl]ethyl]amino]-5,6,7,8-tetrahydronaphthalene-2-carboxylic acid] | 5.2
